Test: recombinant barcode read abundance after kanamycin selection (control-corrected) (log10(CPM+1)); higher = more efficient recombination; sequences stand for … in AGTGCAGAGAAAATCGGCCAGTTTTCTCTGCCTGCAGTCCGCATGCCGT…AGATTTATGCAGCGGACTGCCTTTCTCCCAAAGTGATAAACCGGACAGTATCATGGACCGGTTTTCCCGGTAATCCGTATTTGCAAGGTTGGTTTCACT; site = the 11-nt target
Summary of the method: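 A promoter, a target, a barcode and the first 104 bridge RNA bases under J23119 made up each oligo. Oligos were Gibson-cloned into a vector bearing the other 73 bp and a T7-inducible recombinase, then co-electroporated into E. coli with a donor plasmid and plated in duplicate on chloramphenicol/ampicillin LB agar (control) or chloramphenicol/ampicillin/kanamycin with 0.1 mM IPTG. Recombination efficiency is the averaged, control-corrected counts per million of recombinant-junction barcodes. Reported values are log10(CPM+1).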
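Further: IS621 recombinase and bridge RNA in Escherichia coli cells.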

Row | Sequence | recombinant barcode read abundance (log10)
1 | ATGATTCCTTGGGTTCTAACCTGTTGCCT (site AGGATTCCTAG) | 0.0244
2 | ATGATTCCTTGGGTTCTAACCTGTTGCCT (site ATGATTCCTAG) | 0.62
3 | ATGATTGCTTGGGTTCTAACCTGTTGCCT (site ATGAATGCTAG) | 0.149
4 | ATGATTGCTTGGGTTCTAACCTGTTGCCT (site ATGATTGCTAG) | 1.18
5 | ATGCCCACTTGGGTTCTAACCTGTTGCCT (site ATGCCAACTAG) | 0.0683
6 | ATGCCCACTTGGGTTCTAACCTGTTGCCT (site ATGCCCACTAG) | 1.33
7 | ATGCCCACTTGGGTTCTAACCTGTTGCCT (site ATGCCGACTAG) | 0.049
8 | ATGCCCACTTGGGTTCTAACCTGTTGCCT (site ATGCCTACTAG) | 0.106
9 | ATGCGAGCTTGGGTTCTAACCTGTTGCAG (site ATGCGAGCTCA) | 0.791
10 | ATGCGAGCTTGGGTTCTAACCTGTTGCAG (site ATGCGAGCTCC) | 0.0805
11 | ATGCGAGCTTGGGTTCTAACCTGTTGCAG (site ATGCGAGCTCG) | 0.549
12 | ATGCGAGCTTGGGTTCTAACCTGTTGCAG (site ATGCGAGCTCT) | 1.87
13 | ATGGACCCTTGGGTTCTAACCTGTTGCTC (site ATGGACCCTGA) | 1.93
14 | ATGGACCCTTGGGTTCTAACCTGTTGCTC (site TATCGGGCTCT) | 0.0488
15 | ATGGATACTTGGGTTCTAACCTGTTGCGT (site AGGGATACTAC) | 0.219
16 | ATGGATACTTGGGTTCTAACCTGTTGCGT (site ATGGATACTAC) | 2.51
17 | ATGGCGGCTTGGGTTCTAACCTGTTGCCT (site ATGGCGGCTAG) | 1.69
18 | ATGGCGGCTTGGGTTCTAACCTGTTGCCT (site GTGGAGGCTAG) | 0.0374
19 | ATGGGCACTTGGGTTCTAACCTGTTGCCT (site ATAGGAACTAG) | 0.198
20 | ATGGGCACTTGGGTTCTAACCTGTTGCCT (site ATGGGCACTAG) | 0.639

Row | Sequence | recombinant barcode read abundance (log10)
21 | ATGGGCCCTTGGGTTCTAACCTGTTGCTC (site ATGGGCCCTAA) | 1.36
22 | ATGGGCCCTTGGGTTCTAACCTGTTGCTC (site ATGGGCCCTCA) | 1.04
23 | ATGGGCCCTTGGGTTCTAACCTGTTGCTC (site ATGGGCCCTGA) | 2.09
24 | ATGGGCCCTTGGGTTCTAACCTGTTGCTC (site ATGGGCCCTTA) | 0.0312
25 | ATGGGTCCTTGGGTTCTAACCTGTTGCCT (site ATAGGTCCTAG) | 2.07
26 | ATGGGTCCTTGGGTTCTAACCTGTTGCCT (site ATCGGTCCTAG) | 0.0834
27 | ATGGGTCCTTGGGTTCTAACCTGTTGCCT (site ATGGGTCCTAG) | 2.55
28 | ATGGGTCCTTGGGTTCTAACCTGTTGCCT (site ATTGGTCCTAG) | 0.356
29 | ATGGTCCCTTGGGTTCTAACCTGTTGCCT (site ATAGTCCCTAG) | 3.2
30 | ATGGTCCCTTGGGTTCTAACCTGTTGCCT (site ATGGTCCCTAG) | 3.16
31 | ATGGTGGCTTGGGTTCTAACCTGTTGCCT (site ATGGTGACTAG) | 1.17
32 | ATGGTGGCTTGGGTTCTAACCTGTTGCCT (site ATGGTGCCTAG) | 0.288
33 | ATGGTGGCTTGGGTTCTAACCTGTTGCCT (site ATGGTGGCTAG) | 1.81
34 | ATGGTGGCTTGGGTTCTAACCTGTTGCCT (site ATGGTGTCTAG) | 0.241
35 | ATGTCTACTTGGGTTCTAACCTGTTGCCA (site ATAACTACTTG) | 0.0597
36 | ATGTCTACTTGGGTTCTAACCTGTTGCCA (site ATGTCTACTTG) | 0.0628
37 | ATTACCTCTTGGGTTCTAACCTGTTGCCT (site AATACCTCTAG) | 0.0245
38 | ATTACCTCTTGGGTTCTAACCTGTTGCCT (site ACTACCTCTAG) | 0.0829
39 | ATTACCTCTTGGGTTCTAACCTGTTGCCT (site AGTACCTCTAG) | 0.0695
40 | ATTACCTCTTGGGTTCTAACCTGTTGCCT (site ATTACCTCTAG) | 1.1

Row | Sequence | recombinant barcode read abundance (log10)
41 | ATTACTTCTTGGGTTCTAACCTGTTGCTT (site ATTACTTCTAA) | 0.282
42 | ATTACTTCTTGGGTTCTAACCTGTTGCTT (site GAGTTCCCTGG) | 0.406
43 | ATTAGGACTTGGGTTCTAACCTGTTGCAG (site ATTAGGACTCA) | 0.579
44 | ATTAGGACTTGGGTTCTAACCTGTTGCAG (site ATTAGGACTCT) | 2.1
45 | ATTAGGACTTGGGTTCTAACCTGTTGCGA (site AATAGGACTGC) | 0.03
46 | ATTAGGACTTGGGTTCTAACCTGTTGCGA (site ATTAGGACTTC) | 2.3
47 | ATTAGTGCTTGGGTTCTAACCTGTTGCCT (site AATAGTGCTAG) | 0.605
48 | ATTAGTGCTTGGGTTCTAACCTGTTGCCT (site ACTAGTGCTAG) | 0
49 | ATTAGTGCTTGGGTTCTAACCTGTTGCCT (site AGTAGTGCTAG) | 0.118
50 | ATTAGTGCTTGGGTTCTAACCTGTTGCCT (site ATTAGTGCTAG) | 0.0389
51 | ATTCACACTTGGGTTCTAACCTGTTGCGT (site ATTCACACTAC) | 2.16
52 | ATTCACACTTGGGTTCTAACCTGTTGCGT (site CGATTAGCTCG) | 0.0576
53 | ATTGGATCTTGGGTTCTAACCTGTTGCCT (site ATTGGATCTAG) | 0.391
54 | ATTGGATCTTGGGTTCTAACCTGTTGCCT (site ATTGGCTCTAG) | 0.0247
55 | ATTGGATCTTGGGTTCTAACCTGTTGCCT (site ATTGGGTCTAG) | 0.0971
56 | ATTGGATCTTGGGTTCTAACCTGTTGCCT (site ATTGGTTCTAG) | 0.205
57 | ATTTCCACTTGGGTTCTAACCTGTTGCCT (site AAGTCCACTAG) | 0.176
58 | ATTTCCACTTGGGTTCTAACCTGTTGCCT (site ATTTCCACTAG) | 0.433
59 | ATTTGCCCTTGGGTTCTAACCTGTTGCCT (site AATTGCCCTAG) | 0.222
